Assay results from US11866460B2 (priority 2015, dated 2024).
Read-outs that look alike come from different tables or passages of the source. Where no end group is shown, it is not given here.

Legend:
[1] = test system: CHIKV 181/25; test: microbe, parasite or virus in culture; conditions: Chikungunya virus, Vero
[2] = in vitro; conditions: African green monkey, CC50
[3] = test system: human erythrocyte cells
[4] = test system: S. aureus (ATCC 25923); conditions: for MIC in PB: 10 mM potassium phosphate buffer, pH 7.2; for MIC in PBS: phosphate-buffered saline
[5] = test system: Vero cells; conditions: African green monkey
[6] = test system: JEV 14-14-2
[7] = test system: DENV-2 New Guinea C; conditions: -2 New Guinea C
[8] = test system: YFV 17D
[9] = test system: DENV-4 H241
[10] = test system: CHIKV 181/25
[11] = test system: DENV-1 PRS41393
[12] = test system: VEEV TC-83; conditions: 0 h
[13] = test system: DENV-3 H87; conditions: -3 H87
[14] = test system: influenza A/Hong Kong/1/1968 virus (H3N2); test: microbe, parasite or virus in culture; conditions: H3N2, MDCK

In the case of `O=c1cnn([C@@H]2O[C@H](CO)[C@@H](O)[C@H]2O)c(=O)[nH]1` [6-azauridine], the EC50 [1] is reported as 0.29 µM.
For `Nc1ccn(C[C@@H](CO)OCP(=O)(O)O)c(=O)n1` [Cidofovir], the CC50 [2] was greater than 375 µM.
In the case of GSSWLRDIWTKLQSWL [TSG005], the MHC [3] is reported as 13 µM, the “MIC in PB” value [4] is reported as 1.5 µM and the “MIC in PBS” value [4] is reported as 1.5 µM.
In the case of SGSWLRDVWTWLQSKL [TSG001 L-isomer], the CC50 [5] is reported as greater than 20 µM.
For AGSWLRDIWTWLQSAL [TSG008], the MHC [3] was 1.5 µM, the “MIC in PB” value [4] was 1.5 µM and the “MIC in PBS” value [4] was 1.5 µM.
In the case of GSSWLRDILTALQSLL [TSG007], the MHC [3] is reported as 1.5 µM, the “MIC in PB” value [4] is reported as 1.5 µM and the “MIC in PBS” value [4] is reported as 1.5 µM.
With GSSWLRDVWTKLQSWL [TSG004] the “Therapeutic Index (CC50/EC50)” value [6] was 24.46, the “Therapeutic Index (CC50/EC50)” value [7] was 18.29 and the EC50 ([7]; 0 h) was 8.63 µM. The CC50 [2] was 111 µM, the MHC [3] was 50 µM and the “Therapeutic Index (CC50/EC50)” value [8] was 14.33. The “Therapeutic Index (CC50/EC50)” value ([9]; -4 H241) was 15.88, the EC50 ([9]; -4 H241, 0 h) was 6.5 µM and the CC50 [5] was 114 µM. The “Therapeutic Index (CC50/EC50)” value [10] was 14.89, the EC50 ([10]; 0 h) was 9.52 µM and the “Therapeutic Index (CC50/EC50)” value ([11]; -1 PRS41393) was 13.45. For the same compound, the EC50 ([11]; -1 PRS41393, 0 h) was 6.24 µM, the “MIC in PB” value [4] was 1.5 µM and the “MIC in PBS” value [4] was 1.5 µM. The EC50 [12] was greater than 50 µM and the “Therapeutic Index (CC50/EC50)” value [13] was 18.64.
With `CC(=O)N[C@H]1[C@H]([C@H](O)[C@H](O)CO)OC(C(=O)O)=C[C@@H]1N=C(N)N` [Zanamivir] the EC50 [14] was 4.52 µM.
